Measurements as given in US20230398123A1, “METHODS TO TREAT INFLAMMATORY BOWEL DISEASE” (SHANGHAI PHARMACEUTICALS HOLDING CO., LTD., priority 2021, published 2023).
“Also recorded” adds a separate entry of the source. Like-named read-outs stand apart in the source and are kept apart here.

How the values were obtained:
IL-6 = IL-6 release from human ulcerative colitis colon mucosal biopsies (SEB-stimulated, multiplex ELISA); format: cell-based; settings: about 18 hours, 50 ng/mL SEB
[1] = Bioavailability in monkeys; settings: monkey, in vivo, oral
Bioavailability in rats = settings: rat, in vivo, oral
[2] = test system: DNBS-induced colitis in Wistar rats; test: DNBS-induced colitis in Wistar rats; format: in vivo; settings: day 1-7
[3] = test system: TNBS-induced colitis in C57BL/6 mice; test: TNBS-induced colitis in C57BL/6 mice, macroscopic and microscopic colon observations; format: in vivo; settings: for histology of colon sections (H&E): day 3 after TNBS instillation (FIG. 5B)
From the text: Colitis was induced in C57BL/6 mice by instillation of trinitrobenzene sulfonic acid (TNBS) in the colons according to conventional methods. See Antoniou, et al., Ann. Medicine and Surgery, vol. 11, 9-15 (2016).
FIGS. 5A-B show histological observations of colon sections from C57BL/6 mice. All animals were sacrificed on day 3 after the TNBS instillation to induce colitis as described above, and tissues are visualized by H&E (hematoxylin and eosin) staining.
The second panel in FIG. 5B is tissue from a colon instilled with TNBS and treated with 10 mg/kg SPH-X twice daily, administered intraperitoneally.

TNF-α [4] = test: Western blot of TNF-α protein in mucosal lysates, TNBS colitis mice; format: in vivo; settings: 10 mg/kg twice daily for three days, listed as SPH-X
Experimental: To assess the effect of SPH-X in this model at the molecular level, colitis was again induced in mice by TNBS instillation (three per treatment group), using ethanol as a control. Test animals were treated with either vehicle (PBS) or SPH-X (10 mg/kg i.p., twice daily) for three days following the TNBS injury and were then sacrificed. Colonic mucosa were isolated from each test animal and used to prepare mRNA. The mRNA was reverse transcribed to provide cDNAs.
Finally, mucosal lysates from test animals treated as described for the cytokine analysis were prepared and analyzed by Western blot to see how SPH-X affects TNF-α protein levels in the colitis model.

TNF-α [5] = test: TNF-α release from human ulcerative colitis colon mucosal biopsies (multiplex ELISA); format: cell-based; settings: some UC patients; 10-300 nM
IL-17A = IL-17A release from human ulcerative colitis colon mucosal biopsies (multiplex ELISA); format: cell-based; settings: some UC patients; 10-300 nM
[6] = Tekturna (aliskiren) label; cited from earlier work
[7] = test system: TNBS-induced colitis in RenTgMK mice; settings: TNBS instillation, aliskiren by intraperitoneal injection; cited from earlier work
[8] = UC Donor C, Formula (I) malate salt 10-300 nM, Birb 796 1 μM

## Cc1ccc(-n2nc(C(C)(C)C)cc2NC(=O)Nc2ccc(OCCN3CCOCC3)c3ccccc23)cc1 [Birb 796, reference compound]
IL-6; [8]
  IL-6 production: reduction of IL-6

## COC(=O)NCCCn1nc([C@@H](C)N(C(=O)C2CNCCO2)C2CC2)c2ccc(C)nc21 (stereo partly drawn) [Formula (I)]
[1]
  bioavailability: 3.3 to 11.3%
Bioavailability in rats
  bioavailability: 11.5 to 24.5%

## COC(=O)NCCCn1nc([C@@H](C)N(C(=O)C2CNCCO2)C2CC2)c2ccc(C)nc21.O=C(O)C[C@H](O)C(=O)O (stereo partly drawn) [Formula I malate salt]
IL-6; [8]
  IL-6 production: does not show reduction in IL-6
IL-6; UC Donors A and B, 10-300 nM
  IL-6 production: significant dose-related decreases
[2]; 30 mg/kg q.d. p.o.
  colon length: significantly increased colon length
[3]; 5 mg/kg BID, listed as SPH-X
  histology of colon sections (H&E): substantially prevents or treats any injury caused by TNBS instillation; also recorded: treats or prevents such damage
[3]; 10 mg/kg intraperitoneally after TNBS instillation (FIG. 4B)
  interior of colons dissected longitudinally (bleeding at the distal ends): do not show such damage
[3]; 10 mg/kg twice daily intraperitoneally, listed as SPH-X
  histology of colon sections (H&E): substantially protects the colon from injury caused by TNBS; also recorded: treats or prevents such damage
[3]; 20 mg/kg BID intraperitoneal, 7 days after TNBS instillation (FIG. 4A), listed as SPH-X
  gross morphology of colons: appear more normal; also recorded: substantially reverses damage caused by TNBS
TNF-α [4]
  TNF-α protein level (Western blot): no TNF-α protein was seen; also recorded: reduces or stops formation of TNF-α
TNF-α [5]
  release of tumor necrosis factor alpha (TNF-α): dose-related reductions
IL-17A
  release of IL-17A: dose-related reductions

## C[C@@H]1CCN(C(=O)CC#N)C[C@@H]1N(C)c1ncnc2[nH]ccc12 [Tofacitinib]
[2]; 30 mg/kg BID p.o.
  CW/BW ratio improved by: 9%
  CW/CL ratio improved by: 37%
  CW/CL/BW ratio improved by: 14%

## COCCCOc1cc(C[C@@H](C[C@H](N)[C@@H](O)C[C@H](C(=O)NCC(C)(C)C(N)=O)C(C)C)C(C)C)ccc1OC [aliskiren]
[6]
  bioavailability: 2.5%
[7]
  effect on induced colitis: ameliorated this induced colitis
